Assay results published in US20040014144A1, “Method of screening for substances acting on MSK1” (Leo Pharmaceutical Products Ltd. A/S, priority 1999, published 2004).

Legend:
[1] = tested on: NFκB transcriptional activity in THP-1 cells; assay: NFκB-luciferase reporter gene assay in LPS stimulated THP-1 cells; type: cell-based, human; settings: for reporter gene (luciferase) activity, % of the control value: THP-1 cells transfected with pBIIX, 1 μM of each compound, 1 hour pretreatment, 1 μg/ml LPS 5 h
Method: All transfections were performed in triplicate.

[2] = tested on: TNF-α secretion in THP-1 cells; assay: LPS induced secretion of TNF-α in THP-1 cells, enzyme immuno assay; type: cell-based, human; settings: for inhibition of secretion of TNF-α: THP-1 cells, 1 μM of each compound, 60 min preincubation, 1 μg/ml LPS 5 hours
Method: (§1) The mononuclear cells (PBMC) were isolated from human peripheral blood by Lymphoprep® fractionation (Nycomed, Norway) and the THP-1 cells were obtained from the American Type Culture Collection (Accession No. TIB-202). Both cell lines were suspended in RPMI 1640 with 2% fetal calf serum (FCS), 2 mM L-glutamine, 100 U/ml penicillin and […] streptomycin. […] Louis, Mo., USA). […] The levels of IL-1β and TNF-α were measured in the culture supernatant by enzyme immuno assays (monoclonal antibodies were obtained from R & D Systems, Abingdon, UK).

TNF-α secretion in PBMC = assay: LPS induced secretion of TNF-α in PBMC, enzyme immuno assay; type: cell-based, human; settings: for inhibition of secretion of TNF-α: 30 min preincubation, 1 μg/ml LPS 18 hours
Method: as §1

IL-1β secretion in PBMC = assay: LPS induced secretion of IL-1β in PBMC, enzyme immuno assay; type: cell-based, human; settings: for inhibition of secretion of IL-1β: 30 min preincubation, 1 μg/ml LPS 18 hours
Method: as §1

[3] = tested on: THP-1 or peripheral blood mononuclear cells (PBMC); assay: LPS induced secretion of TNF-α and IL-1β in THP-1 or PBMC (summary statement); type: cell-based, human
Method: as §1

MSK1 = MSK1 (Homo sapiens, UniProt O75582); settings: from reference (5); cited from earlier work
Sequence of MSK1 (O75582 whole entry): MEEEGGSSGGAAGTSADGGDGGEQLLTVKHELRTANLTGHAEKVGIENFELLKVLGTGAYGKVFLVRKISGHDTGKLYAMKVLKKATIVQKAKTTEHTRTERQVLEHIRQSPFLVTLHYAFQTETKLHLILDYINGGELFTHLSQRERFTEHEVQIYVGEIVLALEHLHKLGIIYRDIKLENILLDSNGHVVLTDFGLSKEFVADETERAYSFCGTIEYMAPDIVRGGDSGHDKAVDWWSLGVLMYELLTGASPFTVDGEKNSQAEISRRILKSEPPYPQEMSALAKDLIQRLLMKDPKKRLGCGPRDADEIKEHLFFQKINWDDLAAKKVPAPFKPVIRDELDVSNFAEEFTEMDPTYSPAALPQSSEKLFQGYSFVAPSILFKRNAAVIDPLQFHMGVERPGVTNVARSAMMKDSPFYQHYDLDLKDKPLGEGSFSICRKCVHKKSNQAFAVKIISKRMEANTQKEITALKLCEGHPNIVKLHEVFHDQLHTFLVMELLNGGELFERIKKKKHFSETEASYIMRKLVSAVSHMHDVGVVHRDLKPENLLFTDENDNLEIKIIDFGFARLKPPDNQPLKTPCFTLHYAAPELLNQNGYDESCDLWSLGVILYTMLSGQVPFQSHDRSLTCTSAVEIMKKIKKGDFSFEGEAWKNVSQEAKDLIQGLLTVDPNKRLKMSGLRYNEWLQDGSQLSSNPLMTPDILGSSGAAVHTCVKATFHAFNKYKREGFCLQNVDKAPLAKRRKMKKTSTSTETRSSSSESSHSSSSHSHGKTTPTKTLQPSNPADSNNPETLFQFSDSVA

Compound	reporter gene (luciferase) activity, % of the control value [1]	inhibition of secretion of TNF-α [2] [%]	inhibition of secretion of TNF-α (TNF-α secretion in PBMC; 10 μM compound)	inhibition of secretion of IL-1β (IL-1β secretion in PBMC; 10 μM compound)	LPS induced NFκB transcriptional activity ([1]; THP-1 cells, summary statement)	LPS induced secretion of TNF-α and IL-1β [3]	inhibition of secretion of TNF-α (TNF-α secretion in PBMC; 1 μM compound)	inhibition of MSK1 activity in vitro (MSK1)	inhibition of secretion of IL-1β (IL-1β secretion in PBMC; 1 μM compound)	inhibition at 1 µM ([2]; Homo sapiens, THP-1, read-out: inhibition of secretion of TNF-α) [%]	inhibition at 1 µM (TNF-α secretion in PBMC; Homo sapiens, read-out: inhibition of secretion of TNF-α) [%]	inhibition at 1 µM (IL-1β secretion in PBMC; Homo sapiens, read-out: inhibition of secretion of IL-1β) [%]
COc1cccc(-c2cc(=O)c3ccccc3o2)c1N [PD98059]	no effect	5	about 40%	about 40%	–	–	–	–	–	–	–	–
Cn1cc(C2=C(c3cn(CCCSC(=N)N)c4ccccc34)C(=O)NC2=O)c2ccccc21 [Ro318220]	15%	50	–	–	strongly inhibited	strongly inhibited	approximately 90%	potent inhibitor	approximately 90%	–	–	–
C[S+]([O-])c1ccc(-c2nc(-c3ccncc3)c(-c3ccc(F)cc3)[nH]2)cc1 (stereo not drawn) [SB203580]	49%	–	–	–	–	–	–	–	–	30	40 to 60	40 to 60
